# Tests used:
# DNA polymerases = experiment: Primer extension with several different DNA polymerases, template directing dATP, dATP, dATP, dGTP (FIG. 12); format: biochemical; settings: only the indicated nucleotide, 100 μM, 30 minutes
# Protocol: Different Polymerases React Differently to the ANS-γ-modified Nucleotides: primer extension reactions were performed to determine the ability of various polymerases to incorporate γ-tagged dNTPs during DNA polymerization. Control reactions contained natural dNTPs to monitor for template-directed nucleotide incorporation as well as for misincorporation as shown in FIG. 12. The reactions were performed in the appropriate buffer and contained the specified polymerase, primer/template duplex (radiolabeled ‘TOP’ primer annealed to ‘BOT-3TC’ template), and only the indicated dNTP. The reactions were carried out at room temperature or at 37° C. for 30 minutes and were stopped by the addition of […]. The volume of the reaction was then reduced to approximately 2-4 μL, loading dye was added and the polymerization products were electrophoresed through a 20% denaturing polyacrylamide gel. Arrows indicate the position of the free labeled ‘TOP’. Asterisks indicate 3-base extension.
# Primer extension experiments were performed with several different DNA polymerases to determine whether any of them could incorporate the ANS-γ-phosphate modified nucleotides (FIG. 12). These experiments were performed by incubating the indicated polymerase in appropriate extension buffer, 100 μM ANS-γ-modified dATP, and a 5′-^32P end-labeled primer annealed to a template that directed sequential incorporation of dATP, dATP, dATP dGTP. Positive and negative control reactions containing natural dATP or dGTP, respectively, were run in parallel to monitor template-directed nucleotide incorporation or mis-incorporation. Reactions containing dATP should produce 3-base extension products, whereas those containing dGTP should not produce extended products (due to the absence of dATP). No products longer than 3-bases should result, since no reaction contained more than one nucleotide type. […] Reaction products were heat denatured, loaded onto a 20% denaturing polyacrylamide gel, size-separated (2400 V; 1 hour), and detected via phosphorimaging.
# Taq DNA polymerase = biological target: T1, Taq DNA polymerase (Thermus aquaticus, UniProt P19821); experiment: Primer extension assay with a single nucleotide, TOP primer/BOT template duplexes (FIG. 1); format: biochemical; settings: for DNA strand extension and misincorporation on a template with multiple Ts: template BOT-3TC, lanes 10, 11
# T1 construct: purchased Promega Corporation
# Protocol: The ability of a commercially available polymerase to incorporate the novel dNTPs synthesized was monitored using primer extension assays.
# This first example illustrates the incorporation of ANS-γ-phosphate dATP to produce extended DNA products from primer/template duplexes. The reactions were carried out in extension buffer and the resulting radiolabeled products were size separated on a 20% denaturing polyacrylamide gel. Data were collected using a phosphorimaging system. Referring now FIG. 1, Lane 1 contained 5′ radiolabeled ‘TOP’ probe in extension buffer. Lane 2 contained Taq DNA polymerase, 50 μM dGTP incubated with a DNA duplex (radiolabeled TOP with excess ‘BOT-Sau’). Lane 3 contained Taq DNA polymerase, 50 μM dATP incubated with a DNA duplex (radiolabeled TOP with excess ‘BOT-Sau’). Lane 4 contained Taq DNA polymerase, 50 μM ANS-γ-dATP incubated with a DNA duplex (radiolabeled TOP with excess ‘BOT-Sau’). Lane 5 contained Taq DNA polymerase, 50 μM dGTP incubated with a DNA duplex (radiolabeled TOP with excess ‘BOT-TC’). Lane 6 contained spill-over from lane 5. Lane 7 contained Taq DNA polymerase, 50 μM dATP incubated with a DNA duplex (radiolabeled TOP with excess ‘BOT-TC’). Lane 8 contained Taq DNA polymerase, 50 μM ANS-γ-dATP incubated with a DNA duplex (radiolabeled TOP with excess ‘BOT-TC’). Lane 9 contained Taq DNA polymerase, 50 μM dGTP incubated with a DNA duplex (radiolabeled TOP with excess ‘BOT-3TC’). Lane 10 contained Taq DNA polymerase, 50 μM dATP incubated with a DNA duplex (radiolabeled TOP with excess ‘BOT-3TC’). Lane 11 contained Taq DNA polymerase, ANS-γ-dATP incubated with a DNA duplex (radiolabeled TOP with excess ‘BOT-3TC’). Lane 12 contained 5′ radiolabeled ‘TOP’ probe in extension buffer. Lane 13 contained 5′ radiolabeled ‘TOP’ probe and Taq DNA polymerase in extension buffer.
# In these experiments, Taq DNA polymerase (2.5 units/reaction; Promega Corporation) was incubated in polymerase reaction buffer with 10,000 cpm of 5′-^32P end-labeled ‘TOP’ primer, 10 ng of the indicated single-stranded template, and the specified dNTP. The sequences of the oligonucleotides are shown (Table 1). Extension reactions were incubated for 30 minutes, and terminated by the addition of 1 µl of 0.5 M EDTA. The reactions were lyophilized and resuspended in 3.5 µl of sequencing loading buffer. Reaction products were heat denatured, loaded onto a 20% denaturing polyacrylamide gel, size-separated, and quantified using a phosphorimaging system (Fuji Medical Systems, Inc.).
# [1] = template BOT-3TC (three A's to be incorporated), lanes 9-11
# [2] = template BOT-Sau (first incorporated base should be dGTP), 50 μM nucleotide, lanes 2-4
# [3] = template BOT-TC (single A to be incorporated), 50 μM nucleotide, lanes 5-8
# T1 sequence (P19821 whole entry): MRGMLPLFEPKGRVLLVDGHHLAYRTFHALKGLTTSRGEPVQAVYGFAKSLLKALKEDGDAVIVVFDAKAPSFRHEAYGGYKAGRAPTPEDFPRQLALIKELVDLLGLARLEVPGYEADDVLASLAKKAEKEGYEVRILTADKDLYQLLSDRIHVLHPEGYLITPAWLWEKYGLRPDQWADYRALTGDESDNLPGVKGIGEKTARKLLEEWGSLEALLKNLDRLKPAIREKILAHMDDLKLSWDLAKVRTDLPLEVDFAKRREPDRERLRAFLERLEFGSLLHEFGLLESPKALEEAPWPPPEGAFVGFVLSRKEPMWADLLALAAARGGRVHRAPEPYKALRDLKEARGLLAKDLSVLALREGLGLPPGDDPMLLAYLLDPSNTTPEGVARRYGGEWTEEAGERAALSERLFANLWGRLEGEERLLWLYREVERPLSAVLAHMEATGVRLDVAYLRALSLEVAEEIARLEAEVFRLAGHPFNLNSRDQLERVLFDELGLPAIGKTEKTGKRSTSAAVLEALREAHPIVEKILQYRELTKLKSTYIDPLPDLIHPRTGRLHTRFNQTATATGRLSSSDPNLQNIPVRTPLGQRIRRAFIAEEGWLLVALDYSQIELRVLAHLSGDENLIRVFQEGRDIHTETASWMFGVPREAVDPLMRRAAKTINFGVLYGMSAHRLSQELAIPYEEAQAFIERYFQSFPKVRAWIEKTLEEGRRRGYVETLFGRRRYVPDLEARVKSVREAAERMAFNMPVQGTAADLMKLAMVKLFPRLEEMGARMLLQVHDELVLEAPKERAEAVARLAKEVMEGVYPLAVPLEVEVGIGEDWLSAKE
Compound,extension products formed (DNA polymerases),"decrease in misextensions, tagged nucleotide versus dATP (Taq DNA polymerase; G is to be incorporated, dATP the only nucleotide in the reaction medium)","decrease in misextensions, tagged nucleotide versus dATP (Taq DNA polymerase; a single A is to be incorporated)",Percent Correct (Taq DNA polymerase; [1]),Percent Mis-Extended (Taq DNA polymerase; [1]),Total Percent Extended (Taq DNA polymerase; [1]),DNA strand extension and misincorporation on a template with multiple Ts (Taq DNA polymerase),Percent Correct (Taq DNA polymerase; [2]),Percent Mis-Extended (Taq DNA polymerase; [2]),Total Percent Extended (Taq DNA polymerase; [2]),"non-specific, single-base extension (Taq DNA polymerase; template BOT-Sau, first incorporated base should be dGTP (not added), lane 4 vs lane 1)",Percent Correct (Taq DNA polymerase; [3]),Percent Mis-Extended (Taq DNA polymerase; [3]),Total Percent Extended (Taq DNA polymerase; [3]),"decrease in misextensions, tagged nucleotide versus dATP (Taq DNA polymerase; three A's are to be incorporated)","percent extension of the TOP primer (template-directed single base) (Taq DNA polymerase; template BOT-TC, first incorporated base should be dATP, lanes 7, 8)","extension products misextended opposite a template C (Taq DNA polymerase; template BOT-TC, lane 7, percent of the extension products)","misextended products further extended by the enzyme's terminal transferase activity (Taq DNA polymerase; template BOT-TC, lane 7, percent of the misextended products)"
ANS γ-phosphoamide dATP [ANS-γ-dATP],expected 3-base extension products accumulate,~3 fold,~11 fold,73.43%,3.87%,77.31%,multiple modified nucleotides are incorporated,87.43%,12.57%,12.57%,"very little non-specific, single-base extension",71.14%,6.51%,77.64%,~14 fold,–,–,–
Nc1ncnc2c1ncn2[C@H]1C[C@H](O)[C@@H](COP(=O)(O)OP(=O)(O)OP(=O)(O)O)O1 [dATP],increased amounts of mis-extended products,–,–,27.11%,54.92%,82.03%,frequently misincorporated opposite a template C,61.99%,38.01%,38.01%,–,15.24%,69.01%,84.25%,–,75%,60%,34%
Nc1nc2c(ncn2[C@H]2C[C@H](O)[C@@H](COP(=O)(O)OP(=O)(O)OP(=O)(O)O)O2)c(=O)[nH]1 [dGTP],increased amounts of mis-extended products,–,–,32.20%,67.80%,67.80%,–,52.99%,19.97%,72.97%,–,24.99%,75.01%,75.01%,–,–,–,–
